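Dose response: 5 concentrations. Exposure: 48 h. Format: 96-well plates. Endpoint: linear interpolation; highest concentration if not reached. The concentration for 50% growth inhibition is given as GI50. At the TGI there is no net growth.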
What was measured:
Assay in all cases: DTP human tumour cell line panel, 48 h
KM12 colon = tested on: KM12 colon
ACHN renal = tested on: ACHN renal
MALME-3M melanoma = tested on: MALME-3M melanoma
HOP-62 NSCLC = tested on: HOP-62 NSCLC
HCT-15 colon = tested on: HCT-15 colon
CAKI-1 renal = tested on: CAKI-1 renal
K-562 leukemia = tested on: K-562 leukemia
RPMI-8226 leukemia = tested on: RPMI-8226 leukemia
SF-268 CNS = tested on: SF-268 CNS
IGROV1 ovarian = tested on: IGROV1 ovarian
786-0 renal = tested on: 786-0 renal
OVCAR-4 ovarian = tested on: OVCAR-4 ovarian
NCI-H23 lung = tested on: NCI-H23 lung
PC-3 prostate = tested on: PC-3 prostate

SMILES	TGI (KM12 colon) [µM]	TGI (ACHN renal) [µM]	TGI (MALME-3M melanoma) [µM]	TGI (HOP-62 NSCLC) [µM]	TGI (HCT-15 colon) [µM]	TGI (CAKI-1 renal) [µM]	TGI (K-562 leukemia) [µM]	TGI (RPMI-8226 leukemia) [µM]	TGI (SF-268 CNS) [µM]	TGI (IGROV1 ovarian) [µM]	TGI (786-0 renal) [µM]	TGI (OVCAR-4 ovarian) [µM]	TGI (NCI-H23 lung) [µM]	TGI (PC-3 prostate) [µM]	GI50 (MALME-3M melanoma) [µM]	GI50 (HCT-15 colon) [µM]	GI50 (RPMI-8226 leukemia) [µM]	GI50 (SF-268 CNS) [µM]	GI50 (OVCAR-4 ovarian) [µM]
COC(=O)C1=C(O)C(C(=O)OC)[C@]2(O)[C@H](C(=O)OC)[C@H]1C[C@@H](c1ccc(OC)cc1)[C@H]2C(=O)OC (some centres not stated)	41.3	37.6	> 100	85.1	> 100	62.1	> 100	57.4	> 100	> 100	47.3	78.2	> 100	–	–	–	–	–	–
CO[C@H]1O[C@@H]2CO[C@@H](c3ccccc3)O[C@H]2C[C@]12CCC/C=C\CO2	> 75	35	26.4	44.4	27.5	> 75	35.7	–	32.1	–	26.2	> 75	68.1	50.8	–	–	–	–	–
N#Cc1c(NC(=S)NCc2ccccc2)sc2c1CCN(N1CCc3c(sc(NC(=S)NCc4ccccc4)c3C#N)C1)C2	> 100	> 100	> 100	> 100	> 100	> 100	> 100	–	> 100	> 100	> 100	> 100	> 100	> 100	–	–	–	–	–
CNC(=O)CN1CC(=O)N(C)C(=O)C1	> 100	–	> 100	> 100	> 100	> 100	> 100	> 100	–	> 100	–	> 100	> 100	–	–	–	–	–	–
CCN1/C(=C/C(C)=C/c2sc3ccccc3[n+]2CC)Sc2ccccc21	1.21	3.13	1.71	0.391	–	0.693	1.24	4.48	1.76	2	–	1.62	0.824	–	–	–	–	–	–
O/N=C\c1cc(O)c(O)c(/C=N/O)c1	> 100	80.3	> 100	> 100	> 100	> 100	> 100	> 100	> 100	> 100	–	> 100	> 100	> 100	–	–	–	–	–
N#Cc1c(-c2ccc(Cl)cc2)c(C#N)c(=O)n(NS(=O)(=O)c2ccccc2)c1-c1ccccc1	–	> 25	–	> 25	> 25	> 25	> 25	> 25	–	–	> 25	> 25	–	> 25	–	–	–	–	–
Cc1ccc2[nH]c3c(C)c4ccncc4c(C)c3c2c1	2.12	2.28	4.16	3.24	2.22	1.85	2.52	4.88	2.11	2.44	–	2.56	2.98	–	–	–	–	–	–
CC(=O)Oc1c(OC(C)=O)c(-c2ccc(O)c(O)c2)c(O)c(O)c1-c1ccc(O)cc1	> 100	–	> 100	> 100	> 100	> 100	> 100	> 100	> 100	> 100	–	> 100	> 100	–	51.3	76.3	20	80.6	59
NNC(=O)c1n[nH]nc1SSc1n[nH]nc1C(=O)NN	> 100	> 100	–	> 100	> 100	> 100	–	–	> 100	> 100	> 100	> 100	> 100	> 100	–	–	–	–	–
C=C1C(=O)OC2/C=C(\C)C(O)/C=C\C(C)(O)CC(OC(=O)/C(C)=C/C)C12 (configuration not stated)	> 100	54.1	40.4	> 100	33.8	> 66.7	> 84.6	> 68.6	> 100	> 100	38	> 100	> 100	–	–	–	–	–	–
COc1ccc(NC2=NCCO2)c2ccccc12	> 10	> 10	> 10	> 10	> 10	> 10	> 10	> 10	> 10	> 10	–	> 10	–	> 10	–	–	–	–	–
O=C(NCc1ccccc1)c1cnc(Cl)cn1	> 100	44.1	> 100	–	82.4	33	–	> 100	> 100	> 100	> 100	> 100	87.4	–	–	–	–	–	–
CC(C)(C)OC(=O)N1CCC23CCCC2C(=O)CC=C13 (configuration not stated)	> 100	> 100	> 100	> 100	> 100	> 100	> 100	–	> 100	> 100	> 100	> 100	> 100	> 100	–	–	–	–	–
C#CCOC(=O)c1ccccc1OC(C)=O	> 100	> 100	–	> 100	> 100	> 100	> 100	> 100	> 100	> 100	> 100	> 100	> 100	> 100	–	–	–	–	–
O=C(/C=C/c1ccc(Cl)c(Cl)c1)Oc1ccc(/C=C2\CCCCC2=O)cc1	> 100	> 100	–	> 100	> 100	> 100	–	> 100	> 100	> 100	> 100	> 100	> 100	> 100	–	–	–	–	–
Cc1ccc(S(=O)(=O)N/N=C2\C=C[C@]3(CC2)C(=O)N(C)c2ccccc23)cc1	> 100	> 100	–	> 100	> 100	> 100	> 100	> 100	> 100	> 100	> 100	> 100	> 100	> 100	–	–	–	–	–
COc1cc2c(cc1OC)CCN=C2	> 100	–	> 100	> 100	> 100	> 100	–	> 100	–	> 100	–	> 100	> 100	> 100	–	–	–	–	–
